In assay [1] the target is Mitogen-activated protein kinase 14 (Homo sapiens, UniProt Q16539).
In assay [2] the target is Serine/threonine-protein kinase 38-like (Homo sapiens, UniProt Q9Y2H1).
Assay [3] deals with Cyclin-dependent kinase 2 (Homo sapiens, UniProt P24941).
Assay [4] deals with Mast/stem cell growth factor receptor Kit (Homo sapiens, UniProt P10721).
Assay [5] has as its target Dual specificity protein kinase CLK1 (Homo sapiens, UniProt P49759).
The target in another assay is T1, Ephrin type-B receptor 1 (Homo sapiens, UniProt P54762).
T1 sequence (P54762 whole entry): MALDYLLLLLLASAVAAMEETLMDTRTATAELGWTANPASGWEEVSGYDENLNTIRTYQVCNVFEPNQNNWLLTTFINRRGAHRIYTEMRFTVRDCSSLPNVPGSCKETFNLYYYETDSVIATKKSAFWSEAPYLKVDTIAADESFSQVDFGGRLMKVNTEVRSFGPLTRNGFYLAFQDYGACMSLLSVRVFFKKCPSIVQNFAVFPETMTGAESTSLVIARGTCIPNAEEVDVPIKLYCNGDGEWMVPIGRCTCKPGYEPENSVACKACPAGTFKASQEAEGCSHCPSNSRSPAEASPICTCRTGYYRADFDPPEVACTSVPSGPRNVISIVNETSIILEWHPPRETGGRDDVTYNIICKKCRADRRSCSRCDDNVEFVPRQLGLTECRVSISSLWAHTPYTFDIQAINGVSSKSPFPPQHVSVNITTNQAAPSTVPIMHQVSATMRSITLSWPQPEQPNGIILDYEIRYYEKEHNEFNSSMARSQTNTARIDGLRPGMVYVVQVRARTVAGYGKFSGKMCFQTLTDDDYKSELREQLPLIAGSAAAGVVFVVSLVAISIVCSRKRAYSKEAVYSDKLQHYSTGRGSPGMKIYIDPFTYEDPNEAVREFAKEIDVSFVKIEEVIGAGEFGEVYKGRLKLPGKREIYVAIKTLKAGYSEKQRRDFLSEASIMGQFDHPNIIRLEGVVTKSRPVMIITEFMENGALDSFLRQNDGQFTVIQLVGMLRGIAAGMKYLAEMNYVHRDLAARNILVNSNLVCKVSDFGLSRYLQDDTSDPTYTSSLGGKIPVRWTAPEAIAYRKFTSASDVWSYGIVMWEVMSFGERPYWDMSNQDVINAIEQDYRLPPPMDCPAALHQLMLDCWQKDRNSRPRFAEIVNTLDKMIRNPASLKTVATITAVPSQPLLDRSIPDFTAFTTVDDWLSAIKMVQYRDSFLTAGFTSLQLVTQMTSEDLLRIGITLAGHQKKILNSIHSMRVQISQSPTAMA

In assay [6] the target is Serine/threonine-protein kinase PAK 1 (Homo sapiens, UniProt Q13153).
In another assay the target is Ephrin type-A receptor 5 (Homo sapiens, UniProt P54756).
Assay [7] addresses Serine/threonine-protein kinase PAK 6 (Homo sapiens, UniProt Q9NQU5).
Assay [8] deals with Mitogen-activated protein kinase 10 (Homo sapiens, UniProt P53779).
Assay [9] concerns the target TRAF2 and NCK-interacting protein kinase (Homo sapiens, UniProt Q9UKE5).
Assay [10] has as its target Mitogen-activated protein kinase 8 (Homo sapiens, UniProt P45983).
Assay [11] concerns the target Dual specificity protein kinase CLK2 (Homo sapiens, UniProt P49760).
The target in assay [12] is Dual specificity protein kinase CLK4 (Homo sapiens, UniProt Q9HAZ1).
Assay [13] concerns the target Epidermal growth factor receptor (Homo sapiens, UniProt P00533).
The target in the next assay is T2, Aurora kinase A (Homo sapiens, UniProt O14965).
T2 sequence (O14965 whole entry): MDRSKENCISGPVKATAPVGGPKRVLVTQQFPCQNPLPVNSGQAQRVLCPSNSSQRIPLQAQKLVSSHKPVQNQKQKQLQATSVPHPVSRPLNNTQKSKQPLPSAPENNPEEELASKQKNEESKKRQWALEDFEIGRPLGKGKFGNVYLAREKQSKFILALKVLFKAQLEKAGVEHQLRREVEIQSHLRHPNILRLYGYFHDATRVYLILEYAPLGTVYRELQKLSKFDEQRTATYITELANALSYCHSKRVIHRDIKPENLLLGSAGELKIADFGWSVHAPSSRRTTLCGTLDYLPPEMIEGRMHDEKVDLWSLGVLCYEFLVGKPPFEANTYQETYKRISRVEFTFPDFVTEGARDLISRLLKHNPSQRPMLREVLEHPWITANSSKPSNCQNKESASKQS

In assay [14] the target is BMP-2-inducible protein kinase (Homo sapiens, UniProt Q9NSY1).
Assay [15] addresses Mitogen-activated protein kinase 9 (Homo sapiens, UniProt P45984).
Assay [16] deals with Casein kinase I isoform epsilon (Homo sapiens, UniProt P49674).
The target in assay [17] is Tyrosine-protein kinase ABL1 (Homo sapiens, UniProt P00519).
The target of assay [18] is Tyrosine-protein kinase ABL1 (Homo sapiens, UniProt P00519, Y253F).
Assay [19] deals with Tyrosine-protein kinase Lck (Homo sapiens, UniProt P06239).
Assay [20] concerns the target Tyrosine-protein kinase ABL1 (Homo sapiens, UniProt P00519, M351T).
Assay [21] addresses Tyrosine-protein kinase ABL1 (Homo sapiens, UniProt P00519, Q252H).

Dual specificity protein kinase CLK4, sequence (Q9HAZ1 whole entry): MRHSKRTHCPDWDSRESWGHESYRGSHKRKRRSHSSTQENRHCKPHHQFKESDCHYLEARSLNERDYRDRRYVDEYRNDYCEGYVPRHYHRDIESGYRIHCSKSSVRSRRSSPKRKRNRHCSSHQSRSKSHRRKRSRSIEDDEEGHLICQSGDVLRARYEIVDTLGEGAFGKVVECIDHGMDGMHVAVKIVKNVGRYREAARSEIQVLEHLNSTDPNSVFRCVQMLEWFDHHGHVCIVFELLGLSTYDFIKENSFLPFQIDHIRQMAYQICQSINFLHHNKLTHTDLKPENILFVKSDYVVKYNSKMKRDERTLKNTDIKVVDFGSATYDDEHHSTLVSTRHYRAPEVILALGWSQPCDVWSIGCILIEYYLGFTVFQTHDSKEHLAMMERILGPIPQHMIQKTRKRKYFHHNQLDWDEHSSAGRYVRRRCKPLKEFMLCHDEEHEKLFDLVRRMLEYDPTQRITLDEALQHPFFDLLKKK
Mitogen-activated protein kinase 14, sequence (Q16539 whole entry): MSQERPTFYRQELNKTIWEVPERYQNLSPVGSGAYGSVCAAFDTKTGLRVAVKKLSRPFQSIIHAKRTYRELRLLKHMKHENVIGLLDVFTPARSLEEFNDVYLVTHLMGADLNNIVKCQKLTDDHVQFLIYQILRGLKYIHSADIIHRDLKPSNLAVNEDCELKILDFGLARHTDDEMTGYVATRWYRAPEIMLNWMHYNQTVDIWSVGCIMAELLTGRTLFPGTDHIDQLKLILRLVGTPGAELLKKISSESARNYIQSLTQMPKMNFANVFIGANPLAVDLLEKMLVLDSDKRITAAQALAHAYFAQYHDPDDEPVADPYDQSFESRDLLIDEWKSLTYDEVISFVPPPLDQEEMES
Casein kinase I isoform epsilon, sequence (P49674 whole entry, canonical isoform): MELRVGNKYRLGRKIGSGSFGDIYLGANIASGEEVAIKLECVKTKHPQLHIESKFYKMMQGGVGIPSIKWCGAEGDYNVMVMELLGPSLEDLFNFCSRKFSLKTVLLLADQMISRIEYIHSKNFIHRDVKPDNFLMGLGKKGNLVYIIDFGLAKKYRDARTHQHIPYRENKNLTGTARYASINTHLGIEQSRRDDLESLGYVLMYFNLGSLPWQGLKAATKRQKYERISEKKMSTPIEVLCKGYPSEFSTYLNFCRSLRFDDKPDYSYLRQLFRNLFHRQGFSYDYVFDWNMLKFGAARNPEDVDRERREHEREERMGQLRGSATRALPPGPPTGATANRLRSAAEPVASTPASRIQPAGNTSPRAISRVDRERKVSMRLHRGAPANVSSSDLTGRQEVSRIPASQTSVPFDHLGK
Serine/threonine-protein kinase 38-like, sequence (Q9Y2H1 whole entry): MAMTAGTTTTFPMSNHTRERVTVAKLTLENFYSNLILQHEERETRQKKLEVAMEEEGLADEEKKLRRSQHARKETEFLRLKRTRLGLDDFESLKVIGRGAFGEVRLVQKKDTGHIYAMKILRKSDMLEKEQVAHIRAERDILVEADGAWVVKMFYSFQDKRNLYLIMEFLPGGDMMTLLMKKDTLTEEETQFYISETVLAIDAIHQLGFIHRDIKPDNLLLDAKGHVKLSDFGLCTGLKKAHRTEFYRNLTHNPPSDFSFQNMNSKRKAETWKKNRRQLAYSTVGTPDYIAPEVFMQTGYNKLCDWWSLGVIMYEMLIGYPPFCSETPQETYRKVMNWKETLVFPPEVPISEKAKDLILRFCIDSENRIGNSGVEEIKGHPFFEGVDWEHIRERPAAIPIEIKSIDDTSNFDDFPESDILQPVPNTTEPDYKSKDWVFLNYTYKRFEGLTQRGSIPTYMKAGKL
Dual specificity protein kinase CLK1, sequence (P49759 whole entry): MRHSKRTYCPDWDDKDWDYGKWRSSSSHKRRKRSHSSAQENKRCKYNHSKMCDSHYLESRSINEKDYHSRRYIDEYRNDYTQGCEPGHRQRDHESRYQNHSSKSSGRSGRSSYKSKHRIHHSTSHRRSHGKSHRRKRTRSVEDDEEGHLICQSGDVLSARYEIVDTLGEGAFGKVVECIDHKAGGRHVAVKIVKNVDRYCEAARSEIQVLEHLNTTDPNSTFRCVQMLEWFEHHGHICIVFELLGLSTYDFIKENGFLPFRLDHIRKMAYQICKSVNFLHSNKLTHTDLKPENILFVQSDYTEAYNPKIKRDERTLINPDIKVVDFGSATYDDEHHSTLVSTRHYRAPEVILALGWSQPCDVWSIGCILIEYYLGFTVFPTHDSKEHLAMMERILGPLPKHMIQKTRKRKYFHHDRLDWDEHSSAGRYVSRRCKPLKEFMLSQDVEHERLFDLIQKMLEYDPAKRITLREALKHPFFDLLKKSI
Mast/stem cell growth factor receptor Kit, sequence (P10721 whole entry): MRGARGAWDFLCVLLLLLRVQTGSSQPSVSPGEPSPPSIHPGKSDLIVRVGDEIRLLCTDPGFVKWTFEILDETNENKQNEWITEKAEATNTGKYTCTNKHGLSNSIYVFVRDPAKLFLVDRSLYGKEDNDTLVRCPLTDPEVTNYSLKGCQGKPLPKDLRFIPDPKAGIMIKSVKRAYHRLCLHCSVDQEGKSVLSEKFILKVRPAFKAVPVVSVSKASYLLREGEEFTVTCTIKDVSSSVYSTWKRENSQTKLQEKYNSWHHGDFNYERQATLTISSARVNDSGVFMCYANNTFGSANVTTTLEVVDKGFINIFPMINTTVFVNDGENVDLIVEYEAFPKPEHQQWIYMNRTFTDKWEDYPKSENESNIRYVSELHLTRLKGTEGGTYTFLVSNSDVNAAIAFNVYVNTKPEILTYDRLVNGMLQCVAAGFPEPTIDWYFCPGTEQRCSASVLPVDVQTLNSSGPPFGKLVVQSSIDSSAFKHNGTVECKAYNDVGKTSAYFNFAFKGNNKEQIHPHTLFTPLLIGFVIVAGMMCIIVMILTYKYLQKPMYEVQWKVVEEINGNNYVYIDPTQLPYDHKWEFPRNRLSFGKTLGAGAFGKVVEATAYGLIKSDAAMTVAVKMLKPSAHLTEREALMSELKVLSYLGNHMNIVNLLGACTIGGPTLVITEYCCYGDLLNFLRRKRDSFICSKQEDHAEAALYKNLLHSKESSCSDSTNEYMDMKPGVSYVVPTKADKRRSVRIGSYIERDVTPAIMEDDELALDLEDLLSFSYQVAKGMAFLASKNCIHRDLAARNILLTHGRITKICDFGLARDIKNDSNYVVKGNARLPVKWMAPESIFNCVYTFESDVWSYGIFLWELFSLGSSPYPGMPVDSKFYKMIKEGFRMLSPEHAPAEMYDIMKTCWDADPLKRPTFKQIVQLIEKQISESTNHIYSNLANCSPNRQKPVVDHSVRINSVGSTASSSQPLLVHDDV
Mitogen-activated protein kinase 10, sequence (P53779 whole entry): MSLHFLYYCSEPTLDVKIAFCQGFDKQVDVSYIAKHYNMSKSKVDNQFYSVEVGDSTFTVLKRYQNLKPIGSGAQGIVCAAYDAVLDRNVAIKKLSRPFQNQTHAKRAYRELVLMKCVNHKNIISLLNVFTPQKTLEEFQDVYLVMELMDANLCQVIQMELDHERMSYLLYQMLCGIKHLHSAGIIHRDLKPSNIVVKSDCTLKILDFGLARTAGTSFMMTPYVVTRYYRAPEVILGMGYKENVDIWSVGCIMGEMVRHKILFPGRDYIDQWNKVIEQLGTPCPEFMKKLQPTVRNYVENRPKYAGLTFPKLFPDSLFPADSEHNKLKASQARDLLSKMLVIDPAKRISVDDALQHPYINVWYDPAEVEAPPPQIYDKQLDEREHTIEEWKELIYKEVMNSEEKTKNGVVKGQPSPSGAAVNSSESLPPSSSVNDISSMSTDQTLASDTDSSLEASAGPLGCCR
BMP-2-inducible protein kinase, sequence (Q9NSY1 whole entry): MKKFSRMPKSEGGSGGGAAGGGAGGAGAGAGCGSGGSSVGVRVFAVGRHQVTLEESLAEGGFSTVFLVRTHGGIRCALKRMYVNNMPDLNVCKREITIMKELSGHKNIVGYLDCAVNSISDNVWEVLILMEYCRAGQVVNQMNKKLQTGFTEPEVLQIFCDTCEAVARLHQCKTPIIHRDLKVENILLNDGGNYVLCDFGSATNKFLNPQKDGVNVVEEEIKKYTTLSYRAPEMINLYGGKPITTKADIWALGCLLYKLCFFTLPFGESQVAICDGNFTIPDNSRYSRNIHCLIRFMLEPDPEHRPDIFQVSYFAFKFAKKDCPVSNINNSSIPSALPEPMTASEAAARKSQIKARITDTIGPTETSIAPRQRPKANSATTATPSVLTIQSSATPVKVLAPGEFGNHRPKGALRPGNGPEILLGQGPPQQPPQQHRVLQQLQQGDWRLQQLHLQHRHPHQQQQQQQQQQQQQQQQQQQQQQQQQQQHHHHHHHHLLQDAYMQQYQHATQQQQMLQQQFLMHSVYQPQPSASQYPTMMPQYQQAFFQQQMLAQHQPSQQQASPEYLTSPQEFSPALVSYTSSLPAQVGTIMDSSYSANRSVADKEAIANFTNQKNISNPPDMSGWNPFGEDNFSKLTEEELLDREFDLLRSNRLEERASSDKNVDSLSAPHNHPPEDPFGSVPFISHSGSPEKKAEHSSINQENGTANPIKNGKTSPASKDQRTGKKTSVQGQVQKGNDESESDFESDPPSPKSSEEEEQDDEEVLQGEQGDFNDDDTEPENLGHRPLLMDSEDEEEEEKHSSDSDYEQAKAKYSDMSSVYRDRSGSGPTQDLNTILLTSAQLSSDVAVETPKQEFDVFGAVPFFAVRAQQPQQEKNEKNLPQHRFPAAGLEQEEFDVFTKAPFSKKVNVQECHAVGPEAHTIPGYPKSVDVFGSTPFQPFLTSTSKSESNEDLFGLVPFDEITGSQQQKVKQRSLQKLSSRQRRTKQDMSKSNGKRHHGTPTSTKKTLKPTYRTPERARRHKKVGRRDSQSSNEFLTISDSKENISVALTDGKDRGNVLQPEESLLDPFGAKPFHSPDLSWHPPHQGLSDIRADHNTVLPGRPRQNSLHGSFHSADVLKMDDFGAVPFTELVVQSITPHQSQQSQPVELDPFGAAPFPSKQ

Usually Kd stands for the free concentration of one partner at which half of the binding sites on the other are occupied at equilibrium, for simple one-to-one binding. Read a high Kd as lower affinity. Take `C#Cc1cccc(Nc2ncnc3cc(OCCOC)c(OCCOC)cc23)c1` [ERLOTINIB]: the Kd result (in assay [1]; in assay [2]; in assay [3]; in assay [4]; in assay [5]; at Ephrin type-B receptor 1) was “Not Active” in each case. For the same molecule, the Kd result (in [6]; at Ephrin type-A receptor 5; in assay [7]; in [8]; in [9]; in assay [10]) was “Not Active” each time. Moreover, the Kd result in assay [11] and in assay [12] was “Not Active” throughout.

For the molecule `Cc1ccc(NC(=O)c2ccc(CN3CCN(C)CC3)cc2)cc1Nc1nccc(-c2cccnc2)n1` [IMATINIB], the Kd entry (in assay [2]; in [13]; at Ephrin type-B receptor 1; in assay [6]; on Ephrin type-A receptor 5; in [7]) was “Not Active” in each case. The dissociation constant (Kd) result (in [9]; at Aurora kinase A; in [14]) was “Not Active” in each case.

As to `CCOc1cc2ncc(C#N)c(Nc3ccc(F)c(Cl)c3)c2cc1NC(=O)/C=C/CN(C)C` [PELITINIB], the dissociation constant Kd entry in assay [1], in [3], in assay [4], in [15], in assay [7] and in [8] was “Not Active” each time. Further, the Kd entry in assay [10] is “Not Active”; on Aurora kinase A, “Not Active”; in [16], 97 nM.

As for `Oc1ccc(-c2nc(-c3ccc(F)cc3)c(-c3ccncc3)[nH]2)cc1` [SB-202190], the equilibrium dissociation constant (Kd) result (in assay [2]; in assay [17]; in assay [3]; in [4]; in assay [5]; at Ephrin type-B receptor 1) was “Not Active” each time. Besides, the Kd result (in [6]; at Ephrin type-A receptor 5; in assay [7]; in [18]; on Aurora kinase A; in [19]) was “Not Active” throughout. The Kd result was “Not Active” in [14]; “Not Active” in assay [20]; “Not Active” in assay [11]; 400 nM in [16]; “Not Active” in assay [21]; “Not Active” in assay [12].

Regarding `C[S+]([O-])c1ccc(-c2nc(-c3ccc(F)cc3)c(-c3ccncc3)[nH]2)cc1` (stereo not drawn) [SB-203580], the dissociation constant Kd entry (in [2]; in assay [17]; in assay [3]; in assay [4]; in assay [5]; on Ephrin type-B receptor 1) was “Not Active” throughout. In addition, the dissociation constant (Kd) entry (in assay [6]; on Ephrin type-A receptor 5; in assay [7]; in assay [18]; on Aurora kinase A; in [19]) was “Not Active” in each case. Also, the dissociation constant (Kd) entry in [14], in [20], in assay [11], in assay [21] and in assay [12] was “Not Active” throughout.

On to `CC[C@H](CO)Nc1nc(NCc2ccccc2)c2ncn(C(C)C)c2n1` [SELICICLIB], for which the Kd entry (in assay [1]; in assay [2]; in assay [17]; in assay [13]; in assay [4]; on Ephrin type-B receptor 1) was “Not Active” throughout. Also, the equilibrium dissociation constant (Kd) result (in assay [6]; at Ephrin type-A receptor 5; in assay [15]; in assay [7]; in assay [8]; in assay [9]) was “Not Active” in each case. In addition, the Kd result (in [18]; in assay [10]; on Aurora kinase A; in [19]; in assay [14]; in assay [20]) was “Not Active” in each case. The Kd entry in assay [21] was “Not Active”.

Turning to `Oc1c2ccccc2c2c3c(cccc13)N=N2` [SP-600125], the Kd result (in [1]; in [17]; in [4]; in assay [5]; at Ephrin type-B receptor 1; in assay [6]) was “Not Active” throughout. The Kd result at Ephrin type-A receptor 5 is “Not Active”; in assay [7], “Not Active”; in assay [18] it was “Not Active”; in assay [19], “Not Active”; in [20] it was “Not Active”; in assay [16], 3100 nM. The Kd entry in assay [21] was “Not Active”.

As to `COc1cc2c(N3CCN(C(=O)Nc4ccc(OC(C)C)cc4)CC3)ncnc2cc1OCCCN1CCCCC1` [TANDUTINIB], the dissociation constant Kd result (in assay [1]; in assay [2]; in assay [17]; in assay [3]; at Ephrin type-B receptor 1; in assay [6]) was “Not Active” in each case. Besides, the Kd entry (at Ephrin type-A receptor 5; in assay [15]; in [7]; in assay [8]; in [9]; in assay [18]) was “Not Active” throughout. Also, the dissociation constant Kd entry (in assay [10]; on Aurora kinase A; in [19]; in [14]; in assay [20]; in [21]) was “Not Active” in each case. For the same molecule, in [12], the dissociation constant Kd result is “Not Active”.

The values above are taken from ChEMBL document CHEMBL1144455, “A small molecule-kinase interaction map for clinical kinase inhibitors” (Nat Biotechnol, 2005).
